Laboratory results as given in paper PMC2885425, “Complete Phenotypic Recovery of an Alzheimer's Disease Model by a Quinone-Tryptophan Hybrid Aggregation Inhibitor” (PLoS ONE, 2010).

How the values were obtained:
[1] = target: T1, β-amyloid polypeptide (Aβ1–42) (Homo sapiens, UniProt P05067); experiment: fluorescence anisotropy titration (Aβ[…] early assemblies); supported by 1H-NMR shift perturbation with Aβ[…] and ThT fibril inhibition (IC50 […]); format: binding
T1 construct: gene APP; Aβ1–42 (synthetic, early oligomeric assemblies); NMR with Aβ12–28
T1 sequence (P05067 672-713): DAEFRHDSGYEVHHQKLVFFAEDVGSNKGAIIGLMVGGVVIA

[2] = target: Arctic (Arc) (E22G) mutant form of Aβ1–42 (human); experiment: immunoprecipitation with antibody 6E10 and western blot of SDS-stable oligomers; head extracts (PBS, protease inhibitor, 1% SDS) of 6 day old Aβarc1-42-expressing flies on regular food; samples boiled

For `O=C1C=C(N[C@@H](Cc2c[nH]c3ccccc23)C(=O)O)C(=O)c2ccccc21` [IL, 1,4-naphthoquinon-2-yl-L-tryptophan], which Kd [1] is on record?
The Kd was ~90 nM.

“Arctic (Arc) (E22G) mutant form of Aβ1–42 (peptide)” was tested. Which stoichiometry N [2] did it give?
The stoichiometry N was 4.
